Assay results taken from patent US5773569A (Affymax Technologies N.V., priority 1995, dated 1998).
Blank lines part the entries; values can stand above or below the molecule they belong to. Residues, ends and D or L forms follow the SMILES beside them.

What was measured:
[1] = target: T1, extracellular domain of the human erythropoietin receptor (EPO binding protein, EBP) (Homo sapiens, UniProt P19235); assay: Immobilized EBP based [125I]EPO competition binding assay; conditions: IC50 relative to RWJ61233 (IC50 5 μM); cyclic peptides, COOH terminal amides
T1 construct: made in house
T1 sequence (P19235 25-250 limits assumed): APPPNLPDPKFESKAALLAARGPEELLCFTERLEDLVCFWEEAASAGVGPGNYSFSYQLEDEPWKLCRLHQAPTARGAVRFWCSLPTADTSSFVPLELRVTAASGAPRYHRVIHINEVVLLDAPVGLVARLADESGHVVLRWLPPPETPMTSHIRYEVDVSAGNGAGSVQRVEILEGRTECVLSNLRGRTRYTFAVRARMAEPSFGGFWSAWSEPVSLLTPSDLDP
Method: The iodoacetyl activation chemistry of Sufolink beads (Pierce Chemical Co, Rockford, Ill.) is specific for free thiols and assures that the linkage is not easily reversible. EBP-Sulfolink beads were made as follows: SulfoLink gel suspension (10 ml) was mixed with coupling buffer (40 ml: 50 mM Tris, pH 8.3, 5 mM EDTA) and the gel was allowed to settle. The supernatant was removed and the EBP (0.3-1 mg/ml in coupling buffer) to be bound was added directly to the washed beads. The mixture was rocked gently for 30 minutes at room temperature, and the beads were allowed to settle for 1 hour at room temperature. […] The amount of EBP which was covalently bound to the beads was determined by comparing the OD280 of the original EBP solution to the total OD280 recovered in the reaction supernatant and the two 20 ml washes.
Binding assays were initiated by the addition of EBP beads (50 μl) to individual reaction tubes. […] The tubes were incubated for five hours (a time period experimentally determined as adequate for the establishment of equilibrium) at room temperature with gentle rocking. […]
Competitive binding analysis assays of candidate peptides were performed as outlined below. […] The columns containing the washed beads were placed in 12×75 mm glass tubes and bound radioactivity levels were determined using a gamma counter.

[2] = target: T2, murine receptor (FDC-P1/ER cells) (Mus musculus, UniProt P14753); assay: cell-based; conditions: EPO-ED50 (μM)* murine receptor, Tables 20-21; IA = inactive
T2 sequence (P14753 25-507): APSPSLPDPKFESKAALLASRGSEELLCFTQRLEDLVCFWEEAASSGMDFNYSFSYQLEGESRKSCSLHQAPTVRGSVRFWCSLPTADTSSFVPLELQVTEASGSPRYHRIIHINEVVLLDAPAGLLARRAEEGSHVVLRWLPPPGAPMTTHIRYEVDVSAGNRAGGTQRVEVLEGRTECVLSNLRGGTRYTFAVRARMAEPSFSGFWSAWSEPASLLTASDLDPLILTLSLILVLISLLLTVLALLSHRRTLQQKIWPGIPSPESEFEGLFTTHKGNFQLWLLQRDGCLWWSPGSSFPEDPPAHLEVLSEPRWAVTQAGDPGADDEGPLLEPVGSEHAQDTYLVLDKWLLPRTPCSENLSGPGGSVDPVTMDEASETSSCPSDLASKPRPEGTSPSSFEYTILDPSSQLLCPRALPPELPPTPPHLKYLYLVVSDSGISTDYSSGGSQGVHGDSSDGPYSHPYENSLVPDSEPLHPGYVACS
Method: Sample Preparation: Peptides were resuspended in DMSO as a 1×10^-2 M stock solution and serially diluted in 10-fold increments to generate the following 100×solutions:
Two μl of each stock dilution was added to a cell well as described below in a total volume of 200 μl to generate final concentrations as follows:
(§5) Cells are harvested and resuspended in fresh medium without growth factor (erytiropoietin) for 24 hr. Cells are counted and resuspended at a concentration of 800,000 cells/ml. Approximately forty thousand cells (50μ) are added to each well of a 96 well microtiter plate. Peptide is added to each well in triplicate. A standard dose response determination is run with each series of peptides. After a forty-two hr incubation (≈2 doubling), each well is pulsed with 1 μCi/well Thymidine. Cells are incubated an additional six hr at which time cells are harvested and counted to assess thymidine incorporation as an indicator of cell proliferation.

[3] = target: T3, truncated human erythropoietin receptor cell line (Homo sapiens, UniProt P19235); assay: cell-based
T3 sequence (P19235 25-468 limits assumed): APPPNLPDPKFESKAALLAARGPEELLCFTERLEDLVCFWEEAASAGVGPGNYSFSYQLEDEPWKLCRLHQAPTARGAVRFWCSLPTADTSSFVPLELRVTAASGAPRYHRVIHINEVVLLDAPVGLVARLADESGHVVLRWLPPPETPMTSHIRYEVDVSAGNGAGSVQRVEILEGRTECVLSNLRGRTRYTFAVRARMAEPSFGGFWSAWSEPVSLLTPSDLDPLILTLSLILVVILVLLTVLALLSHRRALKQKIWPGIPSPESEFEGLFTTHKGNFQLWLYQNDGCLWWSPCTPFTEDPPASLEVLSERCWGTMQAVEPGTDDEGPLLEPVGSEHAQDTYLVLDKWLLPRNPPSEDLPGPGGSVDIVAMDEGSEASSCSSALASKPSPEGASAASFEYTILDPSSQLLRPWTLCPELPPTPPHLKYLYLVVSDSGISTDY
Method: as §5

[4] = target: T4, PIG-tailed EPO-R immobilized on mAb179 (Homo sapiens, UniProt P19235); assay: PIG-tailed EPO-R radioligand competition binding assay; conditions: streptavidin 4:1 experiment; free peptide concentrations
T4 construct: comprised the extracellular domain of the EPO-receptor; thrombin cleavage site (internal); made in house
T4 sequence (P19235 25-250 limits assumed): T1 sequence (P19235 25-250 limits assumed)
Method: Affinity was determined using a radioligand competition binding assay against PIG-tailed EPOR immobilized on mAB179.
The recombinant receptor protein was immobilized using the following methodology. Microtiter plates were coated within an anti-receptor antibody and the wells which were to contain the immobilized receptor were treated with bovine serum albumin (BSA) to block non-specific binding. The PIG-tailed receptor having a thrombin cleavage site was added to the coated wells of the microtiter plate, which were then washed to remove unbound receptor.
IC50 s were calculated for several of the peptides falling within the general motifs described above.
This peptide was incubated with streptavidin in PBS at a 4:1 molar ratio at room temperature for one hour.
The affinity of the dimer was tested against the PIG-tailed EPOR immobilized on mAbl179 in strip wells.

FDCP-1/muER cells = assay: Peptide-induced initiation of cell cycle measured by DNA content; type: cell-based, murine; conditions: 10 U/ml; ten hours postinduction; medium control 15%
Method: F. Cellular response kinetics: Peptide-Induced Initiation of Cell Cycle Measured By DNA Content
1. Experimental Protocol: FDCP-1/muER cells were grown to stationery phase ≈3.0×10^6 cells/ml. […] Three million cells were collected at the following time points: 0, 6, 8, 10, and 12 hr. (see, FIG. 15). Cells were washed twice in cold PBS and fixed by resuspending the cell pellet in 100 μl of cold PBS followed by 900 μl of cold 70% ethanol. Cells were stained with 50 μg/ml of propidium iodine and fluorescence was measured on FACS Scan Flow cytometer. The percentage of cells in each phase was measured using the SOBR model of CelIFIT software, by Becton Dickinson.

[5] = test system: human peripheral blood mononuclear cells; assay: Colony assay on a human peripheral blood specimen; type: cell-based
Method: (§1) G. Colony Assay: Murine Bone Marrow and Human Peripheml Blood Colony Assay
(§2) A ten milliliter sample of peripheral blood was obtained from a healthy individual in a standard sterile heparin vacutainer tube. Murine bone marrow was obtained from the femurs of approximately 10 mice per experiment. All reagents were obtained from Stem Cell Technologies Inc. (Vancouver, Canada).
(§3) a. Experimental Protocol: Briefly, a nucleated cell count was performed to establish the number and concentration of nucleated cells in the original sample. In the case of peripheral blood, the sample is subjected to centrifugation through a Ficoll-Hypaque (1.077 g per ml) gradient at 400 g for 30 minutes at room temperature. Mononuclear cells at the interface of the Ficoll-Hypaque solution are carefully removed and diluted to a total volume of about 10 ml. The cells obtained from murine bone marrow or human peripheral blood were collected by centrifugation and the supernatant was decanted. The pelleted cells were resuspended in fresh medium and subjected to collection as described above. The washed cells were diluted in Iscove's medium/2% fetal bovine serum to the following concentration for plating:
Normal blood: 4×10^5 light density cells
(§4) Cells were added to methyl cellulose per directions of the manufacturer. […] Equivalent cell numbers were plated in "Complete" methylcellulose medium to assess maximal colony formation. A control plate was run with each assay minus EPO and peptide to determine background colony formation. Colonies were scored after both 10 days and 18 days of incubation.

murine bone marrow cells = assay: Colony assay, murine bone marrow; type: cell-based; conditions: EPO
Method: as §1, §2, §3
Normal marrow: 1×10^5 light density cells
as §4

[6] = test system: polycythemic exhypoxic mice (59Fe incorporation); assay: Polycythemic exhypoxic mouse bioassay; type: in vivo; conditions: subcutaneous
Method: J. Polycythemic Exhypoxic Mouse Bioassay
Female BDF1 mice (18-20 gms) are subjected to a conditioning cycle (in hypobaric chambers) of 18 hrs. at 0.40±0.02 atm. and 6 hrs. at ambient pressure for a period of 14 days.
Mice are maintained at ambient pressure for 72 hrs prior to administration of r-HuEPO or test samples. Test samples or r-HuEPO standard are diluted for injection into conditioned mice. The vehicle consists of: PBS containing 0.1% BSA (w/v). For each dilution, 0.5 ml is administered subcutaneously into each of 10 mice. ^59 Fe is administered 48 hrs. later. Blood samples are taken 48 hrs. following administration of ^59 Fe. Hematocrits and radioactivity measurements are determined for each sample. Dose range and results (two different assays) are set forth in Table 22 and FIGS. 17A-17C, infra.

[7] = scored 2/23/94, EPO (METHOCULT)

Molecule: CC(=O)NCC(=O)NCC(=O)N[C@H](C(=O)N[C@@H](Cc1ccc(O)cc1)C(=O)N[C@@H](CO)C(=O)N[C@H]1CSSC[C@@H](C(=O)N[C@@H](CCCCN)C(=O)N2CCC[C@H]2C(=O)N[C@@H](CCC(N)=O)C(=O)NCC(=O)NCC(N)=O)NC(=O)[C@H](C(C)C)NC(=O)[C@H](Cc2c[nH]c3ccccc23)NC(=O)[C@H]([C@@H](C)O)NC(=O)[C@H](CC(C)C)NC(=O)[C@@H]2CCCN2C(=O)CNC(=O)[C@H](Cc2ccccc2)NC(=O)[C@H](Cc2c[nH]cn2)NC1=O)[C@@H](C)O [RWJ 62146] (HELM PEPTIDE1{[ac].G.G.T.Y.S.C.H.F.G.P.L.T.W.V.C.K.P.Q.G.G.[am]}$PEPTIDE1,PEPTIDE1,7:R3-16:R3$$$V2.0)
Relative Binding [1]: 4
EC50 [2]: 0.03 µM
EC50 [3]: 0.06 µM

Relative Binding [1]: > 100
Molecule: RWJ 61721 (GGTYSEHFGPLTWVKKPQGG)

IC50 [4]: 0.35 µM
Molecule: CC(C)C[C@@H]1NC(=O)[C@@H]2CCCN2C(=O)CNC(=O)[C@H](Cc2ccccc2)NC(=O)[C@H](Cc2c[nH]cn2)NC(=O)[C@@H](NC(=O)[C@H](CO)NC(=O)[C@H](Cc2ccc(O)cc2)NC(=O)[C@@H](NC(=O)CNC(=O)CN)[C@@H](C)O)CSSC[C@@H](C(=O)N[C@@H](CCCCN)C(=O)N2CCC[C@H]2C(=O)N[C@@H](CCC(N)=O)C(=O)NCC(=O)NCC(=O)N[C@@H](CO)C(=O)N[C@@H](CO)C(=O)N[C@@H](CCCCNC(=O)CCCCCNC(=O)CCCC[C@@H]2SC[C@@H]3NC(=O)N[C@@H]32)C(N)=O)NC(=O)[C@H](C(C)C)NC(=O)[C@H](Cc2c[nH]c3ccccc23)NC(=O)[C@H]([C@@H](C)O)NC1=O (HELM PEPTIDE1{G.G.T.Y.S.C.H.F.G.P.L.T.W.V.C.K.P.Q.G.G.S.S.K.[am]}|PEPTIDE2{[O=C1N[C@H]2[C@H](CS[C@H]2CCCCC(=O)[*:2])N1].[O=C(CCCCCN[*:1])[*:2]]}$PEPTIDE1,PEPTIDE2,23:R3-2:R2|PEPTIDE1,PEPTIDE1,6:R3-15:R3$$$V2.0; N-terminus and C-terminus assumed)

Molecule: EPO: Erythropoietin, glycoprotein hormone with 165 amino acids; recombinant standard
cells in S phase (FDCP-1/muER cells): approximately 45%
CFU-E ([5]; scored 2/23/94, 3 U/ml): 7
MBFU-E ([5]; scored 2/23/94, 3 U/ml): 7
CFU-E [5, 7]: 11
MBFU-E [5, 7]: 25
CFU-E ([5]; scored 3/4/94, 3 U/ml): 4
CFU-GM ([5]; scored 3/4/94, 3 U/ml): 3
MBFU-E ([5]; scored 3/4/94, 3 U/ml): 7
PBFU-E ([5]; scored 3/4/94, 3 U/ml): 7
CFU-E ([5]; scored 3/4/94, EPO (METHOCULT)): 1
CFU-GM ([5]; scored 3/4/94, EPO (METHOCULT)): 9
MBFU-E ([5]; scored 3/4/94, EPO (METHOCULT)): 11
PBFU-E ([5]; scored 3/4/94, EPO (METHOCULT)): 13
BFU-E colony-forming cell numbers (murine bone marrow cells; Table 14 (1/28/94), 2/10/94): 5
CFU-E colony-forming cell numbers (murine bone marrow cells; Table 14 (1/28/94), 2/10/94): 23
CFU-GM colony-forming cell numbers (murine bone marrow cells; Table 14 (1/28/94), 2/10/94): 3
BFU-E colony-forming cell numbers (murine bone marrow cells; Table 14 (1/28/94), 2/21/94): 30
CFU-E colony-forming cell numbers (murine bone marrow cells; Table 14 (1/28/94), 2/21/94): 0
CFU-GM colony-forming cell numbers (murine bone marrow cells; Table 14 (1/28/94), 2/21/94): 3
BFU-E colony-forming cell numbers (murine bone marrow cells; Table 15 (2/21/94), 3/1/94): 3
CFU-E colony-forming cell numbers (murine bone marrow cells; Table 15 (2/21/94), 3/1/94): 3
CFU-GM colony-forming cell numbers (murine bone marrow cells; Table 15 (2/21/94), 3/1/94): > 10
CFU-E colony-forming cell numbers (murine bone marrow cells; Table 15 (2/21/94), 3/14/94): 0
CFU-GM colony-forming cell numbers (murine bone marrow cells; Table 15 (2/21/94), 3/14/94): 26
MBFU-E colony-forming cell numbers (murine bone marrow cells; Table 15 (2/21/94), 3/14/94): 0
PBFU-E colony-forming cell numbers (murine bone marrow cells; Table 15 (2/21/94), 3/14/94): 10
LOG MEAN ([6]; dose 0.025 U): 1.65
LOG MEAN ([6]; dose 0.050 U): 2.74
LOG MEAN ([6]; dose 0.100 U): 3.28
